Assay results from publication PMC5399005, “Degradation of lignin β‐aryl ether units in Arabidopsis thaliana expressing LigD, LigF and LigG from Sphingomonas paucimobilis SYK‐6” (Plant Biotechnology Journal, 2016).

Columns and labels:
Format in all cases: biochemical
LigD = molecular target: T1, LigD (Sphingobium sp. SYK-6, UniProt Q01198); test: LC-MS product detection with leaf extract of transgenic Arabidopsis; details: 0.5 mM GGE, 1 mM NAD+, 1 mM GSH, 100 mM phosphate pH 7.5, room temperature, 16 h; product MPHPV
T1 sequence (Q01198 1-305): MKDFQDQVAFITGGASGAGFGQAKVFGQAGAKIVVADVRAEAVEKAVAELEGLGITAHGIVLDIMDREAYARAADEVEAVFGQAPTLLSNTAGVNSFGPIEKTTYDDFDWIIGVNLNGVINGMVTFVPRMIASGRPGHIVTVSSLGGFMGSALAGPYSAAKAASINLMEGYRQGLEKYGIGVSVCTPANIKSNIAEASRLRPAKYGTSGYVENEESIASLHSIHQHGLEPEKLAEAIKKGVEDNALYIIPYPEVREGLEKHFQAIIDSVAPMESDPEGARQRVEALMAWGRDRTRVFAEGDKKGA

LigG = molecular target: T2, LigG (Sphingomonas paucimobilis, UniProt Q9WXJ9); test: as above; details: GS-HPV from LigF reaction mixture, GSH, 100 mM phosphate pH 7.5
T2 construct: codon-optimised, barley alpha-amylase signal peptide added, expressed in Arabidopsis (crude leaf extract)
T2 sequence (Q9WXJ9 1-265): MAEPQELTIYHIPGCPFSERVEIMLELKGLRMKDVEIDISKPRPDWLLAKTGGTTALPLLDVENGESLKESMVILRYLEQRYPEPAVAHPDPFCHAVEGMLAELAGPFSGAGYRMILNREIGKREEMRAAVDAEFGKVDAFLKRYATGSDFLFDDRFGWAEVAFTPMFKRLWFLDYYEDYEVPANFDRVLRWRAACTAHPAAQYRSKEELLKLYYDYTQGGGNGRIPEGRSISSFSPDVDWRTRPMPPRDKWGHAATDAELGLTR

LigF = molecular target: T3, LigF (Sphingobium sp. SYK-6, UniProt P30347); test: LC-MS product detection with leaf extract of transgenic Arabidopsis (also E. coli extract); details: 0.5 mM MPHPV, 1 mM GSH, 1 mM NAD+, 100 mM phosphate pH 7.5, room temperature, 16 h; product GS-HPV
T3 construct: also pETSTREP in E. coli BL21(DE3)
T3 sequence (P30347 1-257): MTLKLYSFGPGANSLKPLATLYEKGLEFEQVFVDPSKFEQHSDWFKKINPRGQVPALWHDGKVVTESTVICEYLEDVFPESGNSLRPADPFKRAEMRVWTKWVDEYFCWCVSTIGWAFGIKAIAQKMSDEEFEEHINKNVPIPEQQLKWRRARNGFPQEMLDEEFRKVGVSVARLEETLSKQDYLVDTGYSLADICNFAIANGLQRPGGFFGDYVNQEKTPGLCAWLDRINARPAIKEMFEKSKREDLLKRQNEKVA

Structure (SMILES): COc1cc(C(O)C(CO)Oc2ccccc2OC)ccc1O (stereo not drawn) [GGE]
- LC-MS product detection with leaf extract of transgenic Arabidopsis (LigD): GGE, MPHPV and GS‐HPV were used as a substrate to monitor the catalytic function

Structure (SMILES): COc1cc(C(=O)C(CO)SC[C@H](NC(=O)CC[C@H](N)C(=O)O)C(=O)NCC(=O)O)ccc1O (stereo partly drawn) [GS-HPV]
- LC-MS product detection with leaf extract of transgenic Arabidopsis (LigG): The reaction mixture obtained contained mainly GS‐HPV and was used to test for LigG activity

Structure (SMILES): COc1cc(C(=O)C(CO)Oc2ccccc2OC)ccc1O (stereo not drawn) [S4, MPHPV]
- LC-MS product detection with leaf extract of transgenic Arabidopsis (also E. col) (LigF): produced enzymatically by incubation of MPHPV with protein extracts of Escherichia coli expressing LigF
